One assay has as its system BAAE cells. The format is cell-based, bovine. The following applies: for reducing cell population, bFGF-stimulated endothelial cell growth / reducing cell population, basal endothelial cell growth: manner of Example II, concentration not given. As to the method: To determine the effectiveness of the bFGF fragment peptide to inhibit the growth of endothelial cells, the peptide is tested under conditions to measure its ability to modulate both basal cell growth and bFGF-simulated cell proliferation. A bioassay was employed of the type set forth in detail in Gospodarowicz et al., J. Cell Biol., 122, 323-333 (1985), using BAAE cells.
For each test, an initial cell density of between about 0.3-0.5×10^4 cells per well was established in 24-miniwell plates. After 6-8 hours, the cells in each well were treated with a challenge dose of bFGF in the absence, or presence to a varying concentration, of a synthetic FGF antagonist. The precise treatment was repeated 48 hours later. On the fifth day, the cells were digested with trypsin, and the total number of cells in each well was determined using a Coulter particle counter.

A short description of assay [1]: Binding to [^3 H]-heparin. The following applies: result in words.
For a further assay, the system named is 3T3 cells. Briefly: [^3 H]-thymidine incorporation in serum-starved 3T3 cells challenged with bFGF. The format is cell-based. The following applies: 24 hours with peptide and bFGF challenge, then 5 hours label, result in words. As to the method:
The synthesis of bFGF(97-120)-NH2 having the formula: H-Arg-Leu-Glu-Ser-Asn-Asn-Tyr-Asn-Thr-Tyr-Arg-Ser-Arg-Lys-Tyr-Ser-Ser-Trp- Tyr-Val-Ala-Lys-Arg-NH2 is conducted in a stepwise manner using a Beckman 990 synthesizer and an MBHA resin in the manner described in Example I. The peptide is judged to be substantially pure using TLC and HPLC. Testing is carried out using a culture of serum-starved 3T3 cells which are incubated for 24 hours with the bFGF peptide fragment and a challenge dose of bFGF and then incubated for 5 hours with radioactive [^3 H]-thymidine to determine whether the fragment will inhibit the incorporation of [^3 H]-DNA in the cell line which will be indicative of its inhibiting cell growth.
On the technique in general: Incorporation of labelled thymidine or its analogues reports DNA synthesis.

Assay [2] deals with FGF receptors of BHK cells. The following applies: result in words.

Square brackets hold non-standard residues; d marks the D form. Ends that are not written are not given here. Peptide text beside a SMILES is read from it. Sar = CNCC(=O)O

“H-YCKNGGFFLRIHPDGRVDGVREKSDPHIKLQLQAEERGVVSIKGV-NH2 [bFGF(24-68)-NH2]”: the ID50 entry with BAAE cells is reported as “about 5 micromolar”. The “cell population reduced, bFGF-stimulated cell growth” value with BAAE cells (bFGF-stimulated cell growth, peptide about 100 μg/ml) was “about 92%”. Moreover, in the assay with BAAE cells (basal cell growth, peptide about 100 μg/ml), the “cell population reduced, basal cell growth” value is on record as “about 84%”. In addition, in the assay on BAAE cells (result in words), the “antagonist activity to both basal and bFGF-stimulated endothelial cell growth” value is “full antagonist activity”. The “binding of the peptide to heparin” value in assay [1] was “strong affinity”.
Consider “YNTYRSRKYSSWYVALKR-NH2 [bFGF(103-120)-NH2, H-Tyr-Asn-Thr-Tyr-Arg-Ser-Arg-Lys-Tyr-Ser-Ser-Trp-Tyr-Val-Ala-Leu-Lys-Arg- NH2]”, for which, in assay [1], the “binding of the peptide to heparin” value is “binds to heparin”. In the assay on 3T3 cells, the “inhibition of bFGF-induced mitosis ([^3 H]-thymidine incorporation)” value (from here on “inhibition of bFGF-induced mitosis”) was “very good inhibition”. For the same compound, the “inhibition of bFGF binding to BHK cells (receptor)” value (“inhibition of bFGF binding” for short) in assay [2] is given as “very strongly inhibits”.
Take “YKNGGFFLRIHPDGRVDGVREKSDPHIKLQLQAEERGVVSIKGV-NH2 [[Tyr^25]-bFGF(25-68)-NH2]”: in the assay on BAAE cells, the “reducing cell population, bFGF-stimulated endothelial cell growth” value was “about 95%” and the “reducing cell population, basal endothelial cell growth” value was “about 86%”. Further, in the assay with BAAE cells (result in words), the “antagonist activity to both basal and bFGF-stimulated endothelial cell growth” value is on record as “full antagonist activity”. In addition, the “binding of the peptide to heparin” value in assay [1] is “very strong binding affinity”. For the same compound, in assay [2], the “binding affinity for BHK cells” value is given as “very strong binding affinity”.
Turning to “H-FFFERLESNNYNTYRSRKYSSWYVALKR-NH2 [bFGF(93-120)-NH2, H-Phe-Phe-Phe-Glu-Arg-Leu-Glu-Ser-Asn-Asn-Tyr-Asn-Thr-Tyr-Arg-Ser-Arg-Lys- Tyr-Ser-Ser-Trp-Tyr-Val-Ala Leu-Lys-Arg-NH2]”, in the assay on BAAE cells (result in words), the “antagonist activity to both basal and bFGF-stimulated endothelial cell growth” value is given as “full antagonist activity”. In assay [1], the “binding of the peptide to heparin” value is “binds to heparin”. In addition, in assay [2], the “inhibition of bFGF binding” value is on record as “inhibits the binding”.
On to “H-HPDGRVDGVREKSDPH-NH2 [bFGF(35-50)-NH2, H-His-Pro-Asp-Gly-Arg-Val-Asp-Gly-Val-Arg-Glu-Lys-Ser-Asp-Pro-His-NH2]”, for which the “antagonist activity to both basal and bFGF-stimulated endothelial cell growth” value in the assay with BAAE cells (result in words) is “full antagonist activity”.
On to “H-YFLRIHPDGRVDGVREKSDPY-OH [[Tyr30,50]-bFGF(30-50)-OH, H-Tyr-Phe-Leu-Arg-Ile-His-Pro-Asp-Gly-Arg-Val-Asp-Gly-Val-Arg-Glu-Lys-Ser- Asp-Pro-Tyr-OH]”, for which the “antagonist activity to both basal and bFGF-stimulated endothelial cell growth” value with BAAE cells (result in words) is “full antagonist activity”.
Take “YCKNGGFFLRIHPDGRVDGVREKSDPHIKLQLQAEERGVVSIKGV [bFGF(24-68)-OH]”: in the assay with BAAE cells, the ID50 entry is “about 5 micromolar”.
Regarding “H-LRIHPDGR-NH2 [bFGF(32-39)-NHz, H-Leu-Arg-Ile-His-Pro-Asp-Gly-Arg-NH2]”, in the assay with BAAE cells, the “reducing cell population, bFGF-stimulated endothelial cell growth” value was “about 11%” and the “reducing cell population, basal endothelial cell growth” value is on record as “about 37%”. The “antagonist activity to both basal and bFGF-stimulated endothelial cell growth” value with BAAE cells (result in words) was “full antagonist activity”.
Consider “H-YRSRKYSSWFVALKR-NH2 [[Phe^115]-bFGF(106-120)-NH2, H-Tyr-Arg-Ser-Arg-Lys-Tyr-Ser-Ser-Trp-Phe-Val-Ala-Leu-Lys-Arg-NH2]”, for which the “inhibition of bFGF-induced mitosis” value with 3T3 cells is “very good inhibition”. Further, the “inhibition of bFGF binding” value in assay [2] is given as “very strongly inhibits”.
Regarding `N=C(N)NCCC[C@H](NC(=O)CNC(=O)[C@H](CC(=O)O)NC(=O)[C@@H]1CCCN1)C(N)=O` [bFGF(36-39)-NH2, H-Pro-Asp-Gly-Arg-NH2] (H-PDGR-NH2), in the assay on BAAE cells, the ID50 was in the range of 30 to 50 µM; the “reducing cell population, bFGF-stimulated endothelial cell growth” value is recorded as “about 54%”; the “reducing cell population, basal endothelial cell growth” value was “about 37%”. In addition, the “antagonist activity to both basal and bFGF-stimulated endothelial cell growth” value in the assay on BAAE cells (result in words) is listed as “full antagonist activity”.
Consider “H-YRSRKYSSMYVALKR-NH2 [[Met^114]-bFGF(106-120)-NH2, H-Tyr-Arg-Ser-Arg-Lys-Tyr-Ser-Ser-Met-Tyr-Val-Ala-Leu-Lys-Arg-NH2]”, for which the “inhibition of bFGF-induced mitosis” value with 3T3 cells is “very good inhibition”. Besides, the “inhibition of bFGF binding” value in assay [2] is “very strongly inhibits”.
Turning to “H-HPDGRVDAVREKTDPH-NH2 [[Ala^42, Thr^47]-bFGF(35-50)-NH2, H-His-Pro-Asp-Gly-Arg-Val-Asp-Ala-Val-Arg-Glu-Lys-Thr-Asp-Pro-His-NH2]”, in the assay with BAAE cells (result in words), the “antagonist activity to both basal and bFGF-stimulated endothelial cell growth” value is on record as “full antagonist activity”.
Consider “H-Cys-Lys-Asn-Gly-Gly-Phe-Phe-T-Arg-Ile-His-Pro-Asp-NH2 [bFGF(25-37)-NH2]”, for which the “antagonist activity to basal endothelial cell growth” value in the assay with BAAE cells (basal growth only, result in words) was “some antagonist activity”. For the same compound, the “binding of the peptide to heparin” value in assay [1] is recorded as “fairly strong binding affinity”. In assay [2], the “binding affinity for BHK cells” value was “fair affinity”.
On to `CC[C@H](C)[C@H](NC(=O)[C@H](CO)NC(=O)[C@@H](NC(=O)[C@@H](NC(=O)CNC(=O)[C@H](CCCNC(=N)N)NC(=O)[C@H](CCC(=O)O)NC(=O)[C@H](CCC(=O)O)NC(=O)[C@H](C)NC(=O)[C@H](CCC(N)=O)NC(=O)[C@H](CC(C)C)NC(=O)[C@H](CCC(N)=O)NC(=O)[C@H](CC(C)C)NC(=O)[C@H](CCCCN)NC(=O)[C@@H](NC(=O)[C@H](Cc1c[nH]cn1)NC(=O)[C@@H]1CCCN1C(=O)[C@H](CC(=O)O)NC(=O)[C@H](CO)NC(=O)[C@H](CCCCN)NC(=O)[C@H](CCC(=O)O)NC(=O)[C@H](CCCNC(=N)N)NC(=O)[C@@H](NC(=O)CN(C)C(=O)[C@H](CC(=O)O)NC(=O)[C@@H](NC(=O)[C@H](CCCNC(=N)N)NC(=O)CNC(=O)[C@H](CC(=O)O)NC(=O)[C@@H]1CCCN1)C(C)C)C(C)C)[C@@H](C)CC)C(C)C)C(C)C)C(=O)N[C@@H](CCCCN)C(=O)NCC(=O)N[C@H](C(N)=O)C(C)C` [[Sar42]-bFGF(36-68)-NH2] (H-PDGRVD[Sar]VREKSDPHIKLQLQAEERGVVSIKGV-NH2), for which the “antagonist activity to both basal and bFGF-stimulated endothelial cell growth” value with BAAE cells (result in words) was “full antagonist activity”.
Take “H-FFLRIHPDGRVDGVREKSDPY-NH2 [[Tyr^50]-bFGF(30-50)-NHz, H-Phe-Phe-Leu-Arg-Ile-His-Pro-Asp-Gly-Arg-Val-Asp-Gly-Val-Arg-Glu-Lys-Ser- Asp-Pro-Tyr-NH2]”: in the assay with BAAE cells, the “reducing cell population, bFGF-stimulated endothelial cell growth” value was “about 6%” and the “reducing cell population, basal endothelial cell growth” value is reported as “about 19%”. The “antagonist activity to both basal and bFGF-stimulated endothelial cell growth” value with BAAE cells (result in words) is recorded as “full antagonist activity”.
As to “H-LRIHPDGRVDGVREKSDPHIKL-NH2 [bFGF(32-53)-NHz, H-Leu-Arg-Ile-His-Pro-Asp-Gly-Arg-Val-Asp-Gly-Val-Arg-Glu-Lys-Ser-Asp-Pro- His-Ile-Lys-Leu-NH2]”, in the assay with BAAE cells (result in words), the “antagonist activity to both basal and bFGF-stimulated endothelial cell growth” value was “weak antagonist activity”.
The same measure, in the same setting: in the case of “H-FFLRIHPDGRVDGVREKSDP-NH2 [bFGF(30-49)-NH2, H-Phe-Phe-Leu-Arg-Ile-His-Pro-Asp-Gly-Arg-Val-Asp-Gly-Val-Arg-Glu-Lys-Ser- Asp-Pro-NH2]” it was “full antagonist activity”; in that of “H-PDGRVDAVREKSDPHIKLQLQAEERGVVSIKGV-NH2 [[Ala^42]-bFGF(36-68)-NH2, H-Pro-Asp-Gly-Arg-Val-Asp-Ala-Val-Arg-Glu-Lys-Ser-Asp-Pro-His-Ile-Lys-Leu- Gln-Leu-Gln-Ala-Glu Glu-Arg-Gly-Val-Val-Ser-Ile-Lys-Gly-Val-NH2]”, “full antagonist activity”.
For the compound “H-YNTYRSRKYSAWYVALKRTGQYKLGPKTGPGQKAILFLPMSAKS-NH2 [[Ala^113]-bFGF(103-146)-NH2]”, the “inhibition of bFGF binding” value in assay [2] is listed as “very strongly inhibits”.
With “H-YNTYRSRKYSSWYVALKRTGQYKLGPKTGPGQKAILFLPMSAKS-NH2 [bFGF(103-146)-NH2, H-Tyr-Asn-Thr-Tyr-Arg-Ser-Arg-Lys-Tyr-Ser-Ser-Trp-Tyr-Val-Ala-Leu-Lys-Arg- Thr-Gly-Gln-Tyr-Lys-Leu-Gly -Pro-Lys-Thr-Gly-Pro-Gly-Gln-Lys-Ala-Ile-Leu-Phe-Leu-Pro-Met-Ser-Ala-Lys-Ser-NH2]”, in assay [1], the “inhibition of FGF binding to heparin” value is listed as “very strongly inhibits”. In addition, the “inhibition of bFGF binding” value in assay [2] is given as “very strongly inhibits”.
Turning to “YCKNGGFFLRIHPDGRVDGVREKADPHIKLQLQAEERGVV-NH2 [[Ala^47]-bFGF(24-63)-NH2]”, the “antagonist activity to both basal and bFGF-stimulated endothelial cell growth” value with BAAE cells (result in words) was “full antagonist activity”.
For the compound “H-YRSRKYSSWYVAL-NH2 [bFGF(106-118)-NH2, H-Tyr-Arg-Ser-Arg-Lys-Tyr-Ser-Ser-Trp-Tyr-Val-Ala-Leu-NH2]”, the “antagonist activity in mitogenic assays” value with BAAE cells (result in words) is “partial antagonist activity”. For the same compound, the “inhibition of bFGF binding” value in assay [2] was “inhibits binding”.
On to “YCKNGGFFLRIHPDGRVDGVREKSDPHIKLQLQAEERGVV-NH2 [bFGF(24-63)-NH2, H-Tyr-Cys-Lys-Asn-Gly-Gly-Phe-Phe-Leu-Arg-Ile-His-Pro-Asp-Gly-Arg-Val-Asp- Gly-Val-Arg-Glu-LysSer-Asp-Pro-His-Ile-Lys-Leu-Gln-T-Gln-Ala -Glu-Glu-Arg-Gly-Val-Val-NH2]”, for which the “antagonist activity to both basal and bFGF-stimulated endothelial cell growth” value with BAAE cells (result in words) is recorded as “full antagonist activity”.
